Publication PMC9501983, “Transport and Permeation Properties of Dapivirine: Understanding Potential Drug-Drug Interactions” (Pharmaceutics, 2022)

Key:
MRP4 [1] = target: T1, MRP4 (Homo sapiens, UniProt O15439); test: in vitro
T1 sequence (O15439 1-1325): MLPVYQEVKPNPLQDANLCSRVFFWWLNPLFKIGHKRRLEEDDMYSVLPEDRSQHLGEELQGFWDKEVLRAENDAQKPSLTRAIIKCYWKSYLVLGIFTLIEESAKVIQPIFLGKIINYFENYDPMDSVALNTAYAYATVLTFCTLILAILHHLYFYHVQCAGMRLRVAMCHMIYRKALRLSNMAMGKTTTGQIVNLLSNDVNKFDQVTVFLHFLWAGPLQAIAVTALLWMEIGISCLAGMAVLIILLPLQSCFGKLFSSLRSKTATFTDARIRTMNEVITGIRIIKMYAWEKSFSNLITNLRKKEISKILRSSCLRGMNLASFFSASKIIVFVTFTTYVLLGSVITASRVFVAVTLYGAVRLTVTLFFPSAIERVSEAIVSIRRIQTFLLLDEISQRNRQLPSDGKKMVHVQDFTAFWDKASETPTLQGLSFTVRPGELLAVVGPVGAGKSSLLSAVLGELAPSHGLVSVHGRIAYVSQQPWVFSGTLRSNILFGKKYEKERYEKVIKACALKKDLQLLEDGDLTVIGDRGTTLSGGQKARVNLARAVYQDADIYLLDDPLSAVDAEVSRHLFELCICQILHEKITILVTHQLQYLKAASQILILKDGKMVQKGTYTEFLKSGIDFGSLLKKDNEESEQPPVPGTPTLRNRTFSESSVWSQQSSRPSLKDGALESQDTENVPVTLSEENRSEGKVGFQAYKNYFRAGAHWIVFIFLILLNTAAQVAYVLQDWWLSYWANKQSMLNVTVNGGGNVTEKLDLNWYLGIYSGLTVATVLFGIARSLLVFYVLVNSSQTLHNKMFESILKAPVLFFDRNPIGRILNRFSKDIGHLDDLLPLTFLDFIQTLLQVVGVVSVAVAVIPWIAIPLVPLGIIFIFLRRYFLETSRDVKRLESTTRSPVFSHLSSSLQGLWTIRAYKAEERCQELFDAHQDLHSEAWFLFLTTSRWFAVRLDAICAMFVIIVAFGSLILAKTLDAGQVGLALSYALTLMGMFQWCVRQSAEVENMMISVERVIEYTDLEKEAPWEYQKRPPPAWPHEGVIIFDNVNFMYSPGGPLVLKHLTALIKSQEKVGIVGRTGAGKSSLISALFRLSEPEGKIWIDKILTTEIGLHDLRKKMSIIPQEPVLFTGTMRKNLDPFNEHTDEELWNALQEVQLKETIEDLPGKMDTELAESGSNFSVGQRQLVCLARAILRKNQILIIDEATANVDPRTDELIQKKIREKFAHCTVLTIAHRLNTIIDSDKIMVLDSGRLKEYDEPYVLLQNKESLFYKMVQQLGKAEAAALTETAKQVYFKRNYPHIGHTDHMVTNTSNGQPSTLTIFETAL
Experimental: To investigate if DPV was a substrate or inhibitor of MRP1 or MRP4, ATP-dependent and independent uptake of DPV (in the substrate study) or estradiol 17 β-D-glucuronide (a known MRP1/MRP4 substrate in the inhibitor study) was measured using 50 μg MRP1, MRP4, and control vesicles. […] The uptake assay was performed at a total volume of 50 μL with either 4 mM ATP or AMP, 2 mM glutathione, 10 μM DPV or estradiol 17 β-D-glucuronide as substrates, with and without 20 μM DPV or MK571 as inhibitors. […] To quantify the uptake amount of DPV or estradiol 17 β-D-glucuronide, 4 μCi mL^−1 3H-DPV or ^3H- estradiol 17 β-D-glucuronide was added to the assay mixture.
The vesicular uptake assays were performed under the above-mentioned conditions. The membrane vesicles were first incubated with respective inhibitor solution or blank assay buffer. The reaction was then initiated by adding the remaining components of the assay mixture to the vesicles and incubated at 37 °C for 3 min. To terminate the reaction, 200 μL ice-cold buffer was added to each well. The samples were then transferred to a glass fiber filter plate and washed 5 times by rapid filtration using a vacuum manifold (IBI Scientific, Dubuque, IA, USA). To quantify ^3H-DPV and ^3H-estradiol 17 β-D-glucuronide uptake, the washed vesicles were lysed with scintillation cocktail at room temperature for 20 min. The collected samples were analyzed on an LS6500 liquid scintillation counter (Beckman Coulter, Brea, CA, USA).
If ATP-dependent uptake was observed, the uptake amount by active transport was calculated using Equation (1):(1) Normalized uptake=mean uptake with ATP−mean uptake with AMP

[2] = parameters: method as in PMID 26034880; settings: DPV ring clinical study (IPM 026); cited from earlier work
MRP4 [3] = target: T1, MRP4; test: ATPase assay (ADP-Glo Max) in MRP4 vesicles; assay type: biochemical; parameters: purchased Thermo Fisher Scientific; settings: DPV 20 μM; prostaglandin E2 20 μM; 60 min, 37 °C
Experimental: ATPase activity of MRP1 or MRP4 in transporter overexpressing membrane vesicles (10 μg of protein per assay) was measured by the ADP-Glo Max assay according to manufacturer’s protocol. The assay quantified the amount of ADP produced by the membrane vesicles over 60 min at 37 °C in the ATPase assay buffer (50 mM Tris-MOPS, 50 mM potassium chloride, 5 mM sodium azide, 2 mM dithiothreitol, 2 mM glutathione, 0.1 mM EGTA-Tris, and 10 mM magnesium chloride at pH 7.0). DPV was tested at 20 μM and compared to the baseline ATPase activity. A known MRP1 substrate, N-ethylmaleimide-S-glutathione (prepared by mixing N-ethylmaleimide and glutathione at a 1:1 molar ratio), at 10 mM and a known MRP4 substrate, prostaglandin E2, at 20 μM were used as positive controls. The reaction was initiated with 5 mM ATP and quenched with the ADP-Glo detection buffer. The amount of ADP produced was quantified by recording luminescence on a SpectraMax M3 plate reader (Molecular Devices, San Jose, CA, USA).

Substrate status for MRP4 (MRP4 [1]): not a substrate | Normalized estradiol 17 β-D-glucuronide uptake by MRP4 vesicles co-incubated with inhibitor (MRP4 [1]; 10 μM substrate, 20 μM test inhibitor, ATP minus AMP): 14.08 fmol | Active uptake of estradiol 17 β-D-glucuronide by MRP4 vesicles, reduced to % of control (MRP4 [1]; 20 µM): not significantly affected | ATPase activity in MRP4 vesicles, % of baseline (MRP4 [3]): no significant stimulation
SMILES: Cc1cc(C)c(Nc2ccnc(Nc3ccc(C#N)cc3)n2)c(C)c1 [DPV, dapivirine]
DPV tissue concentration [2]: 1.8 µM
